Test results taken from ChEMBL document CHEMBL1201862, “PubChem BioAssay data set” (2004).
Each block holds one compound with its values, some of them ahead of it. Calls of active or inactive are those of the source.

Tests used:
[1] = molecular target: 26S proteasome non-ATPase regulatory subunit 14 (Homo sapiens, UniProt O00487); test: inhibition of proteasome subunit RPN11 – biochemical, fluorescence polarization, uHTS hits, confirmation (AID 602368); assay type: functional
[2] = molecular target: 72 kDa type IV collagenase (Homo sapiens, UniProt P08253); test: Dose Response validation of uHTS RPN11 inhibitor hits using a MMP-2 Fluorescence assay.; assay type: functional
Sequence of 72 kDa type IV collagenase (P08253 whole entry): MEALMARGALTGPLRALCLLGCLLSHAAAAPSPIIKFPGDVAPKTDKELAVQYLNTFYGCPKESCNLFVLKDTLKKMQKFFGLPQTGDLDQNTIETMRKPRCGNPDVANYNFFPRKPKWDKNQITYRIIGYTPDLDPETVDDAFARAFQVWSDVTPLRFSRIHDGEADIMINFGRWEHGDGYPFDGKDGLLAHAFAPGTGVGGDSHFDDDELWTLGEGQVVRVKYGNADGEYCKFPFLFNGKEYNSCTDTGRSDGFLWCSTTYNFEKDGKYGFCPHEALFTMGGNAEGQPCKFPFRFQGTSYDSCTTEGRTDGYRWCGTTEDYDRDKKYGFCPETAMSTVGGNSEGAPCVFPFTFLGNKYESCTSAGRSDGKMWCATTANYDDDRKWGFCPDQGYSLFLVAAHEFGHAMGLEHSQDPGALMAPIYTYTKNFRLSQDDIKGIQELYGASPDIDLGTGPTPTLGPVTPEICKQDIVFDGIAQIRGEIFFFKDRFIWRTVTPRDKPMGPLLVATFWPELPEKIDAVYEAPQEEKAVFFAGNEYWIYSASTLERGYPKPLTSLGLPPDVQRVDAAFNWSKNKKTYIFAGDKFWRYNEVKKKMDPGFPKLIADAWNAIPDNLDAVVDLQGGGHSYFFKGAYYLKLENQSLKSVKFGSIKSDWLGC

[3] = molecular target: T1, Insulin-degrading enzyme (Homo sapiens, UniProt P14735); test: Dose Response: Fluorescence polarization-based cell-based high throughput dose response assay for inhibitors of insulin-degrading enzyme (IDE). [Related pubchem assays: 434962 (Primary screen (IDE inhibitors in singlicate)), 449730 (Counterscreen (Cytotoxicity in triplicate)), 435028 (Confirmation (IDE inhibitors in triplicate)), 434984 (Summary …; assay type: functional
T1 sequence (P14735 whole entry): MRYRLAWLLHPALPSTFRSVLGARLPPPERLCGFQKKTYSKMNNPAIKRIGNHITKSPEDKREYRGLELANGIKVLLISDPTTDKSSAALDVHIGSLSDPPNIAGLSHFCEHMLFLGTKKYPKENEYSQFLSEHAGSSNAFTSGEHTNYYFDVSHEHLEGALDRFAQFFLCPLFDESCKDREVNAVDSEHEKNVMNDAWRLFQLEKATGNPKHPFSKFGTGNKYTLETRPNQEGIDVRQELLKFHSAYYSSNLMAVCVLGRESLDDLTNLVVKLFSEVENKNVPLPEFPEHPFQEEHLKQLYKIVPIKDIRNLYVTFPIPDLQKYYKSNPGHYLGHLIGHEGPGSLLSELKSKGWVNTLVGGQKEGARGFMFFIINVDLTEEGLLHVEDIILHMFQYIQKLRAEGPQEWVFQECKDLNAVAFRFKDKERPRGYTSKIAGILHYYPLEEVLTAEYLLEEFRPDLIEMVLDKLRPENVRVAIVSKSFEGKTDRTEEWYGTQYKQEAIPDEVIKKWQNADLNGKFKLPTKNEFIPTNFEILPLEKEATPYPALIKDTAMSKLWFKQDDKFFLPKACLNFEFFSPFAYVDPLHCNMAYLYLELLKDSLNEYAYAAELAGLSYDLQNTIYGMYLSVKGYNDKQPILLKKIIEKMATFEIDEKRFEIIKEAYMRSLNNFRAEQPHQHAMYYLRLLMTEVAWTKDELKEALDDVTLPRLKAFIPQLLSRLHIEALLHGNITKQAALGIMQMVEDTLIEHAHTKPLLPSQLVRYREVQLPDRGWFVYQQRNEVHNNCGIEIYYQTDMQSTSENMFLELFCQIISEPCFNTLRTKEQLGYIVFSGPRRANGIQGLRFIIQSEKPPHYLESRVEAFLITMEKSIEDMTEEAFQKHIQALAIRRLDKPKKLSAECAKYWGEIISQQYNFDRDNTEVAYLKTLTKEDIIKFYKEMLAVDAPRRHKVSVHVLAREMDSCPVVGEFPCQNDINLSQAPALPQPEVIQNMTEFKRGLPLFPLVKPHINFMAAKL

[4] = molecular target: Prothrombin (Bos taurus, UniProt P00735); test: thrombin protease inhibitors – biochemical, fluorescence polarization, uHTS hits, dose response (AID 602369); assay type: functional
[5] = Counterscreen for IDE inhibitors: Luminescence-based cell-based high throughput dose response assay to identify compounds that are cytotoxic to HEK cells. [Related pubchem assays: 434962 (Primary screen (IDE inhibitors in singlicate)), 449730 (Counterscreen (Cytotoxicity in triplicate)), 435028 (Confirmation (IDE inhibitors in triplicate)) …; assay type: functional; settings: HEK293
[6] = molecular target: Heat shock cognate 71 kDa protein (Homo sapiens, UniProt P11142); test: In Vitro Hsc70 Dose Response Fluorescence Polarization Assay. [Related pubchem assays: 1072 ]
Sequence of Heat shock cognate 71 kDa protein (P11142 whole entry): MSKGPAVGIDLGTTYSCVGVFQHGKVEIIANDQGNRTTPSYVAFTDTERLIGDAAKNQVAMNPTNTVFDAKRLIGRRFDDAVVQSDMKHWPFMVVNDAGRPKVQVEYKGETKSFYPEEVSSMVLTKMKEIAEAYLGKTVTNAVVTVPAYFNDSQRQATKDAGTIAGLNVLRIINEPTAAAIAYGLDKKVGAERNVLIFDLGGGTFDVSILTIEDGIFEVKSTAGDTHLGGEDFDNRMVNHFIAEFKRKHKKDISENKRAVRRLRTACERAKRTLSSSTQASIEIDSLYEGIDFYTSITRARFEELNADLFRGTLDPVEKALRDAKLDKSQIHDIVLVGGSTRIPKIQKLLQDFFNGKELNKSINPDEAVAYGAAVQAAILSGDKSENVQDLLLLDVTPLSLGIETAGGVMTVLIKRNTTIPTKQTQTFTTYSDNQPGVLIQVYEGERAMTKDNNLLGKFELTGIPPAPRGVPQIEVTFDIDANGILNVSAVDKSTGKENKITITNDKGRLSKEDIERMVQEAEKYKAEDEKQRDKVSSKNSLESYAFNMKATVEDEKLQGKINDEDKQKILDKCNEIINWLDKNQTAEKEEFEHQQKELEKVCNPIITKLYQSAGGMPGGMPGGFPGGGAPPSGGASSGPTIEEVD

[7] = molecular target: Heat shock 70 kDa protein 1A (Homo sapiens, UniProt P0DMV8); test: inhibition of Hsp70 binding activity – biochemical, fluorescence polarization, SAR follow-up (AID 1072)
Sequence of Heat shock 70 kDa protein 1A (P0DMV8 whole entry): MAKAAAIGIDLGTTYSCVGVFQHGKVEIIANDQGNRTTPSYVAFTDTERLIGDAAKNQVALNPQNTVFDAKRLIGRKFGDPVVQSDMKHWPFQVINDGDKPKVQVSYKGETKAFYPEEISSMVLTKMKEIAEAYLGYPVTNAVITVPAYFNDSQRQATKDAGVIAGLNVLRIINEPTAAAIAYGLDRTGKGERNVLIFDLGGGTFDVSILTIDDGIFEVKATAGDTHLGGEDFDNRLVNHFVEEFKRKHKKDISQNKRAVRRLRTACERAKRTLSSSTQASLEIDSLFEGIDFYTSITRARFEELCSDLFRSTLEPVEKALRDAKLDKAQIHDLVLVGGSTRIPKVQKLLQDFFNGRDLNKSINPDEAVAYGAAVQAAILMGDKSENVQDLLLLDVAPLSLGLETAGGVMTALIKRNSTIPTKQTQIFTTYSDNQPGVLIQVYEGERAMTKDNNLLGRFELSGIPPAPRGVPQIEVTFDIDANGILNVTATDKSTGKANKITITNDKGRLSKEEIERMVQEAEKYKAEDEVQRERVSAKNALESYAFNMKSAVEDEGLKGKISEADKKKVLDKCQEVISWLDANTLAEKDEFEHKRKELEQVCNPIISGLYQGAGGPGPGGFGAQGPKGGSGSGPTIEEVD

[8] = molecular target: Peroxisome proliferator-activated receptor gamma/Nuclear receptor coactivator 3 (Homo sapiens, UniProt P37231); test: (§1) TR-FRET dose response biochemical High Throughput Screening assay for agonists of the steroid receptor coactivator 3 (SRC-3) recruitment by the peroxisome proliferator-activated receptor gamma (PPAR gamma): non-selective agonists. [Related pubchem assays: 1301 (Confirmation screen.), 1048 (Primary screen.)]; assay type: functional
[9] = molecular target: Peroxisome proliferator-activated receptor gamma/Nuclear receptor coactivator 1 (Homo sapiens, UniProt P37231); test: as §1, with “1 (SRC-1)” for “3 (SRC-3)”, “assays (depositor defined):AID1300, AID1808, AID504735, AID631]” for “assays: 1301 (Confirmation screen.), 1048 (Primary screen.)]”; assay type: protein assay
Sequence of Peroxisome proliferator-activated receptor gamma/Nuclear receptor coactivator 1 (P37231 whole entry): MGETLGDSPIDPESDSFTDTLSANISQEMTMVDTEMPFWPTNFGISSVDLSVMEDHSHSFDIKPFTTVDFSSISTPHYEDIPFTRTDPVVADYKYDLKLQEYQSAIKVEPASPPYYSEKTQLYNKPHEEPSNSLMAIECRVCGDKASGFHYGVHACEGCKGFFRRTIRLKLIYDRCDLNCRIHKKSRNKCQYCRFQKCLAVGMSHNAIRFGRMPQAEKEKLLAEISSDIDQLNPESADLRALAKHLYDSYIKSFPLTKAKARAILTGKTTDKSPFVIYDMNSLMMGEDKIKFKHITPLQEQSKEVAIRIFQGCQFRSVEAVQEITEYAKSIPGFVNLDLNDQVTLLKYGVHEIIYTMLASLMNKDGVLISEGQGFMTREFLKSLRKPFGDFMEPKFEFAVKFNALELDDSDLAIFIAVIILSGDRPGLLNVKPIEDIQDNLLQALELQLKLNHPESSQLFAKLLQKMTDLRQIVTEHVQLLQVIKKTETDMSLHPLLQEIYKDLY
Sequence of Peroxisome proliferator-activated receptor gamma/Nuclear receptor coactivator 1 (Q15788 whole entry, further chain): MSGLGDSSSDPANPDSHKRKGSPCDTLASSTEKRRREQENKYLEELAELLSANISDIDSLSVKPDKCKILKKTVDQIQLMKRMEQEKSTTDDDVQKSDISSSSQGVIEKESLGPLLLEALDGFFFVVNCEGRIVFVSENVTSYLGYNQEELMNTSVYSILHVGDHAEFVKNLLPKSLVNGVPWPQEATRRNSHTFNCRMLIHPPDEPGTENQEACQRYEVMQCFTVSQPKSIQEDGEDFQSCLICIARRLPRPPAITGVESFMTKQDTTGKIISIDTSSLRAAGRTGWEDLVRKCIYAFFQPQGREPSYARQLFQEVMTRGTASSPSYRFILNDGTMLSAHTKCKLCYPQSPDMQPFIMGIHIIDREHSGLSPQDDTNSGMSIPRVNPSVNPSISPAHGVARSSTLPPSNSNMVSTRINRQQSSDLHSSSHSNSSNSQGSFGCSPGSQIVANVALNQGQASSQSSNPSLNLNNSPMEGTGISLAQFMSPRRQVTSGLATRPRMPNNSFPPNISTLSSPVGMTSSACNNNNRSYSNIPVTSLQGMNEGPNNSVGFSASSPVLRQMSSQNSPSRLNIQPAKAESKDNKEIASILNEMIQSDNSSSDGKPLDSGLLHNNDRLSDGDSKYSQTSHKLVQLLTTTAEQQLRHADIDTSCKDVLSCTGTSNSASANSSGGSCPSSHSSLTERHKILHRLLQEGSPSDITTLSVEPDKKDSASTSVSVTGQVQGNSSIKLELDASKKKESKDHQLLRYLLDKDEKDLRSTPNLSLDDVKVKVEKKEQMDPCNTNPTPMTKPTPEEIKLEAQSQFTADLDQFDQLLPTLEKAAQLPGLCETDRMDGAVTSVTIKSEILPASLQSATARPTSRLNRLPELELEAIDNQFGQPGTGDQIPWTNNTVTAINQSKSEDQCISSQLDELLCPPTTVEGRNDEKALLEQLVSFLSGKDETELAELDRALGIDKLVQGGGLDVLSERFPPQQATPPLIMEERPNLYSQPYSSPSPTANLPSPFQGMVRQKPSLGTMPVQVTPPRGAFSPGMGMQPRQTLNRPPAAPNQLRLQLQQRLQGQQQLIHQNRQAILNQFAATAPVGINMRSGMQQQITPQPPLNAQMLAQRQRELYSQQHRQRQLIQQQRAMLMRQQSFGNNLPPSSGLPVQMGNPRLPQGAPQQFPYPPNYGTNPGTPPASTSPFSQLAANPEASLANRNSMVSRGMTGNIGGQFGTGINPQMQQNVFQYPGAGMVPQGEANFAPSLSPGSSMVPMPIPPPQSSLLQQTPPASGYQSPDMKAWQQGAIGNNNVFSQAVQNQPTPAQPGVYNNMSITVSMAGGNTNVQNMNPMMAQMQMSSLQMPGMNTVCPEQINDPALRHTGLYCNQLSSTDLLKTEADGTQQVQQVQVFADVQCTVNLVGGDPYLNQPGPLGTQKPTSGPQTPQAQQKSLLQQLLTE

[10] = molecular target: Photoreceptor-specific nuclear receptor (Homo sapiens, UniProt Q9Y5X4); assay type: functional;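 also: potency for compounds that break the NR2E3 corepressor complex and count as activators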
Sequence of Photoreceptor-specific nuclear receptor (Q9Y5X4 whole entry): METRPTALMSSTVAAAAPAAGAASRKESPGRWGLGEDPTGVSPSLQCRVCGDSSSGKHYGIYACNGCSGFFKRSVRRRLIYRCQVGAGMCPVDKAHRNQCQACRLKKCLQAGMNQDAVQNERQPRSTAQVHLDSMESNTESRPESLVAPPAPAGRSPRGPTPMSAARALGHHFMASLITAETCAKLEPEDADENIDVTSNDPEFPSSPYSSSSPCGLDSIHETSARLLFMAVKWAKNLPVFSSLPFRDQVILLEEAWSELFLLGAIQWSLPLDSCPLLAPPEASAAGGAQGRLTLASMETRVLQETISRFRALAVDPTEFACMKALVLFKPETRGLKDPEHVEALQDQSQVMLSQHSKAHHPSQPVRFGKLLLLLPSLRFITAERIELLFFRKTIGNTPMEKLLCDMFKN

[11] = molecular target: Peroxisome proliferator-activated receptor gamma/Nuclear receptor coactivator 2 (Homo sapiens, UniProt P37231); test: TR-FRET dose response biochemical High Throughput Screening assay for agonists of the steroid receptor coactivator 2 (SRC-2) recruitment by the peroxisome proliferator-activated receptor gamma (PPAR gamma): non-selective agonists. [Related pubchem assays: 1297, 1032 ]; assay type: functional
[12] = molecular target: Peroxisome proliferator-activated receptor gamma/Nuclear receptor corepressor 2 (Homo sapiens, UniProt P37231+Q9Y618); assay type: functional
[13] = molecular target: Glyceraldehyde-3-phosphate dehydrogenase (Homo sapiens, UniProt P04406)
Sequence of Glyceraldehyde-3-phosphate dehydrogenase (P04406 whole entry): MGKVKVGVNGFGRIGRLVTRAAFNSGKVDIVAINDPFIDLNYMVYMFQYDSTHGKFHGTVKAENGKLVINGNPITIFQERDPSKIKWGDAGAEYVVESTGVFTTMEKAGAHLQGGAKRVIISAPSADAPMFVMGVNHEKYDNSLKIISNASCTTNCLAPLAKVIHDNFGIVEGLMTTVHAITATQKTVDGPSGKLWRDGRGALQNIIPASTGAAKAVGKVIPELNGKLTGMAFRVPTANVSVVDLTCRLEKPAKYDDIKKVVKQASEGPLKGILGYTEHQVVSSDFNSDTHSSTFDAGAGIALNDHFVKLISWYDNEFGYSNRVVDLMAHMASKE

Sequence of 26S proteasome non-ATPase regulatory subunit 14 (O00487 whole entry): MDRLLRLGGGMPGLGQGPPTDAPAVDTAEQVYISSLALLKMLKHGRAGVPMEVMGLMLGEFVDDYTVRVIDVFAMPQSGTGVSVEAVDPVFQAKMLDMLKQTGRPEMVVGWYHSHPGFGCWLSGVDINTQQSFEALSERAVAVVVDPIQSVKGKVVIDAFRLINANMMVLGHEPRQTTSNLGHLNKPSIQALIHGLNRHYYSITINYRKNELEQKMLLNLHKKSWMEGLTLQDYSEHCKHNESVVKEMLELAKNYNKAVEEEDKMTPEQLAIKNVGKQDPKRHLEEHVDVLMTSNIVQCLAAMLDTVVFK

Compound: COc1ccc(/N=C\c2oc3ccc4ccccc4c3c2O)cc1
- IC50 [1]: 10 µM (active)
- IC50 [2]: > 100 µM (inactive)
- IC50 [3]: > 55.9 µM (not active)
- IC50 [4]: 3.81 µM (active)
- IC50 [5]: > 55.7 µM (not active)

Compound: O=C(O)CCc1c2ccc(=O)c(O)c-2oc2c(O)c(O)ccc12
- IC50 [6]: 3.98 µM (active)
- IC50 [7]: 0.578 µM (active)

- EC50 [8]: > 79.4 µM (not active)
- EC50 [9]: > 79.4 µM (inactive)
- IC50 [10]: > 39.8 µM (not active)
- EC50 [11]: > 79.4 µM (not active)
- IC50 [12]: 6.29 µM (active)
Compound: COC(=O)c1cc(Br)c(=O)n(-c2nccs2)c1

Compound: O=C(O)/C=C/c1c2ccc(=O)c(O)c-2oc2c(O)c(O)ccc12
- IC50 [13]: 15.8 µM (active)
- IC50 [6]: 2.73 µM (active)
- IC50 [7]: 0.332 µM (active)
